Our source for the GI50 and TGI values is PubChem BioAssay (NCI).

Holding throughout (experiment): NCI-60 cell line screen, 48 h
The subject of experiment [1] is SK-MEL-2 melanoma.
In experiment [2] the test system is CCRF-CEM leukemia.
Experiment [3] concerns NCI-H23 lung.
The test system of experiment [4] is NCI-H522 lung.
In experiment [5] the test system is SW-620 colon.
Experiment [6] relates to LOX IMVI melanoma.
The subject of experiment [7] is IGROV1 ovarian.
Experiment [8] deals with HCC-2998 colon.
Experiment [9] has as its system A549 NSCLC.
For experiment [10], the system named is HCT-15 colon.

SMILES strings stand for the structures.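 Tested at 5 concentrations; 48 h exposure; 96-well plates; endpoints linearly interpolated, else capped at highest concentration. Abbreviation: GI50, concentration required for 50% inhibition of growth. The concentration for full growth arrest is given as TGI.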 Some results are limits rather than exact numbers.

As to `O=C(NNc1nc2c(F)cccc2n2cccc12)c1cnccn1`, the GI50 is 1.4 µM in experiment [1]; 0.126 µM in [2]; 0.905 µM in [3]; 0.817 µM in experiment [4]; 0.435 µM in experiment [5]; 0.3 µM in experiment [6]. In addition, the GI50 was 0.328 µM in experiment [7], 0.867 µM in experiment [8], 0.466 µM in [9] and 0.178 µM in experiment [10]. Besides, the TGI was 37 µM in experiment [1]; greater than 69.8 µM in experiment [3]; 16.8 µM in experiment [4]; 38.5 µM in experiment [5]; 5.83 µM in [6]; 29.1 µM in experiment [7]. The TGI in [8] was 28.6 µM; in experiment [9] it was 36 µM; in [10] it was greater than 48.2 µM.

For `Cc1cc2nc3c4cc(Cl)ccc4n(CCN(C)C)c3nc2cc1C`, the GI50 in experiment [1] is 2.08 µM; in experiment [2], 1.22 µM; in [3] it was 1.65 µM; in experiment [4], 1.41 µM; in experiment [5], 0.821 µM; in experiment [6], 1.13 µM. Besides, the GI50 was 1.35 µM in [7], 1.35 µM in [8], 1.51 µM in experiment [9] and 0.821 µM in experiment [10]. For the same compound, the TGI worked out at 4.45 µM in [1]; 4.63 µM in experiment [2]; 3.95 µM in experiment [3]; 3.27 µM in experiment [4]; 2.25 µM in experiment [5]; 2.37 µM in experiment [6]. Moreover, the TGI in experiment [7] stood at 3.86 µM; in experiment [8] it was 2.74 µM; in experiment [9], 4.17 µM; in experiment [10], 4.7 µM.

For `CCn1c(-c2nonc2N)nc2c(C#CCN)ncc(OCCCN)c21`, the GI50 in [1], in experiment [2], in [3], in [4], in experiment [5] and in experiment [6] was greater than 25 µM each time. The GI50 in experiment [7], in experiment [8], in experiment [9] and in experiment [10] was greater than 25 µM throughout. The TGI in experiment [1], in [2], in [3], in [4], in experiment [5] and in experiment [6] was greater than 25 µM throughout. Besides, the TGI in [7], in experiment [8], in experiment [9] and in experiment [10] was greater than 25 µM in each case.

In the case of `COc1cc2ncn(-c3cc(OCc4ccccc4Cl)c(C(N)=O)s3)c2cc1OC`, the GI50 was 1.5 µM in experiment [1]; 0.0781 µM in experiment [2]; 0.202 µM in experiment [3]; 0.13 µM in experiment [4]; 0.102 µM in experiment [5]; 0.169 µM in experiment [6]. Also, the GI50 is 0.552 µM in [7], 0.488 µM in experiment [8], 0.29 µM in experiment [9] and 0.269 µM in experiment [10]. The TGI in experiment [1] is greater than 15.9 µM; in experiment [2], greater than 10.6 µM; in experiment [3], 4.68 µM; in experiment [4], 1.13 µM; in experiment [5], greater than 18.1 µM; in experiment [6], greater than 25 µM. Moreover, the TGI in experiment [7] was greater than 25 µM; in experiment [8] it was greater than 25 µM; in [9], greater than 10.8 µM; in [10] it was greater than 25 µM.

On to `O=C(Nc1nc2ccccc2s1)OCC(F)(F)F`, for which the GI50 in [1], in [2], in experiment [3], in [4], in [5] and in [6] was greater than 100 µM in each case. The GI50 in experiment [7], in experiment [8], in experiment [9] and in [10] was greater than 100 µM each time. The TGI in [1], in experiment [2], in experiment [3], in experiment [4], in [5] and in [6] was greater than 100 µM throughout. For the same compound, the TGI in experiment [7], in experiment [8], in experiment [9] and in experiment [10] was greater than 100 µM throughout.

For `COC(=O)C1OC(O[C@H]2CCC3(C)C(CCC4(C)C3CC=C3C5CC(C)(C)CCC5(C(=O)O)CC[C@]34C)C2(C)C)C(O)C(OC2OC(CO)C(O)C(O)C2O)C1O` (some centres undefined), the GI50 in experiment [1] was 11.9 µM; in [2], 5.79 µM; in experiment [3], 6.46 µM; in [4], 10.5 µM; in experiment [5], 7.28 µM; in experiment [6] it was 6.27 µM. The GI50 in experiment [7] was 20.1 µM; in [8] it was 7.14 µM; in experiment [9] it was 7.22 µM; in experiment [10] it was 6.57 µM. In addition, the TGI was greater than 33.3 µM in experiment [1]; 13.1 µM in [2]; 11.9 µM in experiment [3]; 29 µM in [4]; 16.7 µM in [5]; 11.7 µM in experiment [6]. For the same compound, the TGI was greater than 33.3 µM in [7], 12.4 µM in experiment [8], 19.2 µM in [9] and 13.2 µM in [10].

Consider `NC(N)=N/N=C(/c1ccccc1)c1ccc(F)cc1`, for which the GI50 was 0.429 µM in [1]; 0.493 µM in experiment [2]; 0.403 µM in experiment [3]; 0.267 µM in experiment [4]; 0.376 µM in [5]; 0.513 µM in experiment [6]. The GI50 was 0.528 µM in [7], 0.416 µM in experiment [8], 0.512 µM in [9] and 0.4 µM in experiment [10]. In addition, the TGI in experiment [1] was 11.3 µM; in experiment [2], greater than 74.6 µM; in [3], 8.94 µM; in experiment [4], 1.45 µM; in [5] it was 19.3 µM; in experiment [6], 10.7 µM. The TGI is 13.5 µM in experiment [7], 2.09 µM in experiment [8], greater than 34.6 µM in experiment [9] and 13.4 µM in [10].

With `COc1cc(-n2cc(-c3ccc(Cl)c(Cl)c3)nc2SCc2ccccc2)cc(OC)c1OC`, the GI50 in experiment [1] is greater than 100 µM; in experiment [2] it was greater than 100 µM; in experiment [3], greater than 100 µM; in experiment [4] it was 44.8 µM; in [5] it was greater than 100 µM; in experiment [6] it was greater than 100 µM. The GI50 in experiment [7], in experiment [8], in [9] and in experiment [10] was greater than 100 µM each time. Also, the TGI in experiment [1], in [2], in experiment [3], in experiment [4], in experiment [5] and in experiment [6] was greater than 100 µM each time. Further, the TGI in experiment [7], in experiment [8], in [9] and in experiment [10] was greater than 100 µM in each case.

Take `N#CC(=C1SCS1)[N+](=O)[O-]`: the GI50 is 6.7 µM in experiment [1]; 0.376 µM in experiment [2]; 7.96 µM in [3]; 0.687 µM in [4]; 0.454 µM in [5]; 0.567 µM in experiment [6]. Besides, the GI50 in experiment [7] was 3.55 µM; in experiment [8], 4.26 µM; in experiment [9] it was 4 µM; in experiment [10] it was 0.853 µM. Besides, the TGI was determined as 20.7 µM in experiment [1]; 5.18 µM in [2]; 34.8 µM in experiment [3]; 2.08 µM in [4]; 6.47 µM in experiment [5]; 14.7 µM in experiment [6]. The TGI in [7] was determined as 71.1 µM; in [8], 16.6 µM; in experiment [9], 40.6 µM; in experiment [10], 9.56 µM.

Regarding `CC(C)(C)OC(=O)NC(Cc1ccccc1)C(=O)OCN1C(=O)C2C3C=CC(C2C1=O)C1C2C(=O)N(COC(=O)C(Cc4ccccc4)NC(=O)OC(C)(C)C)C(=O)C2C31` (centres undefined), the TGI in experiment [1] was 98.5 µM; in experiment [2], greater than 68.5 µM; in experiment [3] it was greater than 100 µM; in experiment [4] it was 85 µM; in [5] it was greater than 100 µM; in [6], greater than 100 µM. The TGI was 97.4 µM in experiment [7], greater than 100 µM in experiment [8], greater than 73.8 µM in experiment [9] and greater than 100 µM in experiment [10].

Consider `CCN1CCN(c2nc(NCCCNc3ccnc4cc(Cl)ccc34)c3ccccc3n2)CC1`, for which the GI50 is 2.14 µM in experiment [1]; 2.88 µM in [2]; 4.29 µM in experiment [3]; 2.92 µM in experiment [4]; 2.36 µM in [5]; 1.61 µM in experiment [6]. Moreover, the GI50 in experiment [7] was 2.36 µM; in experiment [8], 1.87 µM; in experiment [9] it was 2.84 µM; in experiment [10], 2.6 µM. For the same compound, the TGI in experiment [1] is 4.88 µM; in experiment [2] it was 10.3 µM; in [3], 16.9 µM; in experiment [4], 6.14 µM; in experiment [5], 7.63 µM; in experiment [6], 3.13 µM. Further, the TGI came to 10.9 µM in [7], 6.09 µM in experiment [8], 11.9 µM in experiment [9] and 10.9 µM in [10].

In the case of `O=C(CSc1nc2ccc([N+](=O)[O-])cc2[nH]1)Nc1ccc(F)c(Cl)c1`, the GI50 in experiment [1] was 2.22 µM; in experiment [2] it was 2.75 µM; in experiment [3], 2.05 µM; in experiment [4] it was 2.37 µM; in experiment [5] it was 3.26 µM; in experiment [6], 2.89 µM. For the same compound, the GI50 was 2.65 µM in [7], 2.95 µM in experiment [8], 2.48 µM in [9] and 2.84 µM in experiment [10]. The TGI in [1] was 6.35 µM; in experiment [2] it was greater than 45.7 µM; in [3], 8.79 µM; in [4] it was 12.4 µM; in experiment [5] it was 15.7 µM; in experiment [6] it was 14 µM. Besides, the TGI in experiment [7] was determined as 14.6 µM; in experiment [8] it was 11.8 µM; in [9], 12.6 µM; in experiment [10], 13 µM.

`C=CC(=O)N[C@H]1C=C(C)c2c(-c3cnc4ccccc4c3)c3c(N)ncnc3n2C1`: the GI50 in experiment [1] was 13.4 µM; in [2], 22.3 µM; in [3], 19.6 µM; in experiment [4] it was 0.699 µM; in experiment [5], 23.8 µM; in experiment [6] it was 7.16 µM. Moreover, the GI50 in experiment [7] was 0.568 µM; in [8] it was 22.4 µM; in experiment [9] it was 11.6 µM; in experiment [10] it was 23.1 µM. The TGI in experiment [1] was 35.2 µM; in [2], greater than 100 µM; in experiment [3] it was 54.5 µM; in experiment [4], 20.4 µM; in [5], greater than 95.5 µM; in [6], 23.5 µM. Also, the TGI in experiment [7] was 12.2 µM; in experiment [8], 45 µM; in [9], greater than 67 µM; in experiment [10] it was greater than 80.3 µM.

With `Cc1nn(-c2ccc(F)cc2)c2ncnc(Nc3ccc(NC(=O)Nc4ccc(Cl)c(C(F)(F)F)c4)cc3)c12`, the GI50 in experiment [1] is 2.37 µM; in experiment [2], 1.57 µM; in experiment [3] it was 1.91 µM; in experiment [4], 1.74 µM; in experiment [5], 2.93 µM; in [6], 1.96 µM. The GI50 in [7] was 2.66 µM; in [8], 2.57 µM; in [9] it was 1.8 µM; in experiment [10] it was 2.73 µM. In addition, the TGI in experiment [1] came out at 5.66 µM; in [2], 13.2 µM; in [3], 4.6 µM; in [4], 4.42 µM; in experiment [5] it was 10.8 µM; in experiment [6], 4.48 µM. For the same compound, the TGI turned out to be 11.2 µM in experiment [7], 10.6 µM in [8], 4.26 µM in [9] and 12.5 µM in experiment [10].

Take `CN1CCN(CC#Cc2cccc(C(=O)c3cnn(-c4ccc(F)cc4)c3N)c2)CC1`: the GI50 in experiment [1], in [2], in experiment [3], in [4], in [5] and in [6] was greater than 25 µM in each case. Also, the GI50 in experiment [7], in experiment [8], in experiment [9] and in experiment [10] was greater than 25 µM each time. The TGI in experiment [1], in experiment [2], in [3], in experiment [4], in [5] and in [6] was greater than 25 µM in each case. The TGI in [7], in experiment [8], in [9] and in [10] was greater than 25 µM in each case.
